The NIST ThermoML archive (doi:10.1016/j.fluid.2019.112274)
± gives the expanded uncertainty stated by the source.

Conditions: Liquid; for speed of sound: Brillouin light scattering; for thermal diffusivity: Dynamic light scattering

CCCCCCCCCC(=O)OCC [ethyl decanoate]
Conditions	speed of sound [m/s]	thermal diffusivity [m2/s]
419.73 K, 7000 kPa	932.2 ± 11	–
423.29 K, 10000 kPa	949.4 ± 11	–
429.05 K, 5000 kPa	–	6.58e-08 ± 2e-09
429.1 K, 3000 kPa	–	6.5e-08 ± 2e-09
429.14 K, 100 kPa	–	6.39e-08 ± 2e-09
429.25 K, 10000 kPa	–	6.78e-08 ± 2.1e-09
429.56 K, 100 kPa	839.8 ± 10	–
429.56 K, 3000 kPa	868.5 ± 10	–
429.6 K, 5000 kPa	884.8 ± 11	–
430.45 K, 7000 kPa	901.1 ± 11	–
432.01 K, 10000 kPa	925 ± 11	–
439.2 K, 10000 kPa	903.9 ± 11	–
439.28 K, 100 kPa	809.5 ± 9.8	–
439.85 K, 3000 kPa	836.6 ± 10	–
440.02 K, 5000 kPa	854.6 ± 10	–
440.37 K, 7000 kPa	871.6 ± 10	–
444.19 K, 100 kPa	–	6.21e-08 ± 1.9e-09
444.35 K, 5000 kPa	–	6.4e-08 ± 2e-09
444.38 K, 3000 kPa	–	6.32e-08 ± 2e-09
444.46 K, 10000 kPa	–	6.59e-08 ± 2e-09
448.51 K, 10000 kPa	878.1 ± 11	–
449.52 K, 7000 kPa	845.4 ± 10	–
450.25 K, 3000 kPa	805.8 ± 9.7	–
450.25 K, 5000 kPa	825.6 ± 9.9	–
451.03 K, 100 kPa	773.3 ± 9.3	–
458.86 K, 5000 kPa	801.3 ± 9.7	–
459.76 K, 100 kPa	–	5.97e-08 ± 1.9e-09
459.85 K, 3000 kPa	778.6 ± 9.4	–
459.9 K, 3000 kPa	–	6.09e-08 ± 1.9e-09
460 K, 10000 kPa	–	6.34e-08 ± 2e-09
460.01 K, 7000 kPa	–	6.23e-08 ± 1.9e-09
460.11 K, 100 kPa	746.8 ± 9	–
460.12 K, 5000 kPa	–	6.16e-08 ± 1.9e-09
460.2 K, 7000 kPa	816 ± 9.8	–
463.71 K, 10000 kPa	837.3 ± 10	–
469.25 K, 3000 kPa	752.4 ± 9.1	–
469.28 K, 5000 kPa	771.9 ± 9.3	–
469.32 K, 7000 kPa	792 ± 9.5	–
469.45 K, 100 kPa	719.5 ± 8.7	–
470.42 K, 10000 kPa	819.1 ± 9.9	–
475.26 K, 3000 kPa	–	5.84e-08 ± 1.8e-09
475.27 K, 100 kPa	–	5.74e-08 ± 1.8e-09
475.31 K, 7000 kPa	–	5.99e-08 ± 1.9e-09
475.31 K, 10000 kPa	–	6.1e-08 ± 1.9e-09
475.35 K, 5000 kPa	–	5.92e-08 ± 1.9e-09
479.25 K, 100 kPa	691.6 ± 8.3	–
479.29 K, 3000 kPa	724.5 ± 8.7	–
479.47 K, 7000 kPa	764.5 ± 9.2	–
479.9 K, 5000 kPa	743.2 ± 9	–
481.5 K, 10000 kPa	791.1 ± 9.5	–
488.69 K, 7000 kPa	740.9 ± 8.9	–
489.53 K, 3000 kPa	–	5.62e-08 ± 1.8e-09
489.54 K, 5000 kPa	–	5.69e-08 ± 1.8e-09
489.54 K, 7000 kPa	–	5.76e-08 ± 1.8e-09
489.54 K, 10000 kPa	–	5.87e-08 ± 1.8e-09
489.57 K, 100 kPa	–	5.52e-08 ± 1.7e-09
490.41 K, 5000 kPa	715.7 ± 8.6	–
490.81 K, 3000 kPa	693.8 ± 8.4	–
492.02 K, 10000 kPa	764.5 ± 9.2	–
499.48 K, 10000 kPa	745.9 ± 9	–
500.41 K, 5000 kPa	690.3 ± 8.3	–
500.55 K, 7000 kPa	711.6 ± 8.6	–
500.76 K, 3000 kPa	667.8 ± 8.1	–
504.58 K, 5000 kPa	–	5.45e-08 ± 1.7e-09
504.77 K, 7000 kPa	–	5.52e-08 ± 1.7e-09
504.79 K, 3000 kPa	–	5.39e-08 ± 1.7e-09
504.94 K, 10000 kPa	–	5.62e-08 ± 1.8e-09
505.38 K, 100 kPa	–	5.28e-08 ± 1.7e-09
509.33 K, 10000 kPa	722.7 ± 8.7	–
510.27 K, 5000 kPa	666.3 ± 8	–
510.41 K, 7000 kPa	686.9 ± 8.3	–
510.65 K, 3000 kPa	642.8 ± 7.8	–
519.26 K, 3000 kPa	–	5.2e-08 ± 1.7e-09
519.36 K, 5000 kPa	–	5.26e-08 ± 1.7e-09
519.41 K, 7000 kPa	–	5.33e-08 ± 1.7e-09
519.6 K, 10000 kPa	–	5.43e-08 ± 1.7e-09
520.04 K, 10000 kPa	696.8 ± 8.4	–
520.19 K, 3000 kPa	619.7 ± 7.5	–
520.25 K, 5000 kPa	642.5 ± 7.8	–
520.27 K, 7000 kPa	664.6 ± 8	–
529.04 K, 10000 kPa	678 ± 8.2	–
529.91 K, 5000 kPa	619.5 ± 7.5	–
530.11 K, 7000 kPa	641.3 ± 7.7	–
530.36 K, 3000 kPa	595.4 ± 7.2	–
534.46 K, 5000 kPa	–	5.06e-08 ± 1.6e-09
534.75 K, 7000 kPa	–	5.12e-08 ± 1.6e-09
534.77 K, 3000 kPa	–	5e-08 ± 1.6e-09
535.01 K, 10000 kPa	–	5.22e-08 ± 1.7e-09
540.06 K, 7000 kPa	618.1 ± 7.5	–
540.09 K, 10000 kPa	651.8 ± 7.9	–
540.12 K, 5000 kPa	595.3 ± 7.2	–
540.66 K, 3000 kPa	570.8 ± 6.9	–
548.94 K, 3000 kPa	551.9 ± 6.7	–
549.74 K, 5000 kPa	574.5 ± 7	–
549.76 K, 3000 kPa	–	4.77e-08 ± 1.5e-09
549.87 K, 10000 kPa	630.6 ± 7.6	–
549.96 K, 5000 kPa	–	4.84e-08 ± 1.6e-09
549.97 K, 7000 kPa	–	4.9e-08 ± 1.6e-09
549.99 K, 7000 kPa	596.7 ± 7.2	–
550.17 K, 10000 kPa	–	4.99e-08 ± 1.6e-09
558.46 K, 3000 kPa	529.8 ± 6.4	–
559.93 K, 5000 kPa	551.9 ± 6.7	–
561 K, 10000 kPa	607 ± 7.3	–
562.07 K, 7000 kPa	570.2 ± 6.9	–
565.49 K, 10000 kPa	–	4.76e-08 ± 1.5e-09
565.86 K, 5000 kPa	–	4.61e-08 ± 1.5e-09
565.87 K, 7000 kPa	–	4.67e-08 ± 1.5e-09
566.27 K, 3000 kPa	–	4.55e-08 ± 1.5e-09
